According to patent publication US11053204B2, “Pyrimidinyloxy benzene derivatives as herbicides” (FMC Corporation, priority 2015, dated 2021):

How the values were obtained:
Type in all cases: in vivo
[1] = test system: Italian ryegrass (Lolium multiflorum); test: Test A preemergence, visual injury rating
Procedure, shortened: (§1)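 Greenhouse pot test, loam/sand soil. Formulation: non-phytotoxic solvent mix plus surfactant. Pre: directed spray onto soil after sowing. Post: plants at 1–2 leaf, 2–10 cm. Rated visually vs untreated controls at ~10 d, 0 (no effect) to 100 (complete control).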

[2] = test system: barnyardgrass (Echinochloa crus-galli); test: Test A preemergence, visual injury rating
Procedure, shortened: as §1

[3] = test system: giant foxtail (Setaria faberii); test: Test A preemergence, visual injury rating
Procedure, shortened: as §1

kochia (Kochia scoparia) [4] = test: Test A preemergence, visual injury rating
Procedure, shortened: as §1

[5] = test system: pigweed (Amaranthus retroflexus); test: Test A preemergence, visual injury rating
Procedure, shortened: as §1

[6] = test system: ragweed (common ragweed, Ambrosia elatior); test: Test A preemergence, visual injury rating
Procedure, shortened: as §1

[7] = test system: Italian ryegrass (Lolium multiflorum); test: Test A postemergence, visual injury rating
Procedure, shortened: as §1

[8] = test system: barnyardgrass (Echinochloa crus-galli); test: Test A postemergence, visual injury rating; conditions: 0 is no effect, 100 is complete control; for Barnyardgrass plant response rating: 0 to 100 scale, approximately 10 days
Procedure, shortened: as §1

[9] = test system: blackgrass (Alopecurus myosuroides); test: Test A postemergence, visual injury rating
Procedure, shortened: as §1

corn (Zea mays) = test: Test A postemergence, visual injury rating
Procedure, shortened: as §1

[10] = test system: galium (catchweed bedstraw, Galium aparine); test: Test A postemergence, visual injury rating
Procedure, shortened: as §1

[11] = test system: giant foxtail (Setaria faberii); test: Test A postemergence, visual injury rating
Procedure, shortened: as §1

kochia (Kochia scoparia) [12] = test: Test A postemergence, visual injury rating
Procedure, shortened: as §1

[13] = test system: pigweed (Amaranthus retroflexus); test: Test A postemergence, visual injury rating
Procedure, shortened: as §1

[14] = test system: ragweed (common ragweed, Ambrosia elatior); test: Test A postemergence, visual injury rating
Procedure, shortened: as §1

[15] = test system: wheat (Triticum aestivum); test: Test A postemergence, visual injury rating
Procedure, shortened: as §1

[16] = test system: barnyardgrass (Echinochloa crus-galli); test: Test B flooded paddy test, plant response rating; conditions: 250 g ai/ha; Flood; scale of 0 to 100 where 0 is no effect and 100 is complete control; 13 to 15 days
Procedure, shortened: (§2)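 Compound was added to standing water 3 cm above soil, flood maintained, and plants held in a greenhouse before visual scoring against controls at 13 to 15 days.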

[17] = test system: ducksalad (Heteranthera limosa); test: Test B flooded paddy test, plant response rating; conditions: 250 g ai/ha; Flood; scale of 0 to 100 where 0 is no effect and 100 is complete control; 13 to 15 days
Procedure, shortened: as §2

rice (Oryza sativa) = test: Test B flooded paddy test, plant response rating; conditions: 250 g ai/ha; Flood; scale of 0 to 100 where 0 is no effect and 100 is complete control; 13 to 15 days
Procedure, shortened: as §2

[18] = test system: sedge, umbrella (small-flower umbrella sedge, Cyperus difformis); test: Test B flooded paddy test, plant response rating; conditions: 250 g ai/ha; Flood; scale of 0 to 100 where 0 is no effect and 100 is complete control; 13 to 15 days
Procedure, shortened: as §2

[19] = 31 g ai/ha, 0 to 100 scale, 0 no effect, 100 complete control
[20] = 125 g ai/ha, 0 to 100 scale (0 no effect, 100 complete control)
[21] = 31 g ai/ha, 0 to 100 scale, 0 is no effect, 100 is complete control, approximately 10 days
[22] = 125 g ai/ha, 0 is no effect, 100 is complete control
[23] = 500 g ai/ha, 0 to 100 scale (0 no effect, 100 complete control)
[24] = 500 g ai/ha, 0 is no effect, 100 is complete control
[25] = 31 g ai/ha, 0 to 100 scale (0 no effect, 100 complete control)
[26] = 125 g ai/ha, 0 to 100 scale, 0 is no effect, 100 is complete control, approximately 10 days

C#CCCOC(=O)c1c(Br)cccc1Oc1ncc(Cl)cn1 [Compound 38]
Plant response rating, Ryegrass, Italian [1, 19]: 0 | Ryegrass, Italian plant response rating [1, 20]: 0 | Plant response rating, Barnyardgrass [2, 19]: 20 | Barnyardgrass plant response rating [2, 20]: 90 | Plant response rating, Foxtail, Giant [3, 19]: 30 | Foxtail, Giant plant response rating [3, 20]: 100 | Plant response rating, Kochia (kochia (Kochia scoparia) [4]; [19]): 0 | Kochia plant response rating (kochia (Kochia scoparia) [4]; [20]): 40 | Plant response rating, Pigweed [5, 19]: 60 | Pigweed plant response rating [5, 20]: 100 | Plant response rating, Ragweed [6, 19]: 0 | Ragweed plant response rating [6, 20]: 0 | Ryegrass, Italian plant response rating [7, 21]: 0 | Ryegrass, Italian plant response rating (0 to 100 scale) [7, 22]: 0 | Barnyardgrass plant response rating ([8]; 31 g ai/ha): 10 | Barnyardgrass plant response rating (0 to 100 scale) ([8]; 125 g ai/ha): 60 | Blackgrass plant response rating [9, 21]: 0 | Blackgrass plant response rating (0 to 100 scale) [9, 22]: 0 | Corn plant response rating (corn (Zea mays); [21]): 0 | Corn plant response rating (0 to 100 scale) (corn (Zea mays); [22]): 10 | Galium plant response rating [10, 21]: 50 | Galium plant response rating (0 to 100 scale) [10, 22]: 80 | Foxtail, Giant plant response rating [11, 21]: 40 | Foxtail, Giant plant response rating (0 to 100 scale) [11, 22]: 90 | Kochia plant response rating (kochia (Kochia scoparia) [12]; [21]): 30 | Kochia plant response rating (0 to 100 scale) (kochia (Kochia scoparia) [12]; [22]): 60 | Pigweed plant response rating [13, 21]: 80 | Pigweed plant response rating (0 to 100 scale) [13, 22]: 100 | Ragweed plant response rating [14, 21]: 0 | Ragweed plant response rating (0 to 100 scale) [14, 22]: 10 | Wheat plant response rating [15, 21]: 0 | Wheat plant response rating (0 to 100 scale) [15, 22]: 0 | Plant response rating, Barnyardgrass [16]: 0 | Plant response rating, Ducksalad [17]: 40 | Plant response rating, Rice (rice (Oryza sativa)): 0 | Plant response rating, Sedge, Umbrella [18]: 30

FC(F)(F)C(F)(F)COCc1c(Br)cccc1Oc1ncc(Cl)cn1 [Compound 63]
Plant response rating, Ryegrass, Italian [1, 19]: 0 | Ryegrass, Italian plant response rating [1, 20]: 0 | Plant response rating, Barnyardgrass [2, 19]: 40 | Barnyardgrass plant response rating [2, 20]: 100 | Plant response rating, Foxtail, Giant [3, 19]: 10 | Foxtail, Giant plant response rating [3, 20]: 90 | Plant response rating, Kochia (kochia (Kochia scoparia) [4]; [19]): 0 | Kochia plant response rating (kochia (Kochia scoparia) [4]; [20]): 0 | Plant response rating, Pigweed [5, 19]: 0 | Pigweed plant response rating [5, 20]: 90 | Plant response rating, Ragweed [6, 19]: 0 | Ragweed plant response rating [6, 20]: 0 | Ryegrass, Italian plant response rating [7, 21]: 0 | Ryegrass, Italian plant response rating (0 to 100 scale) [7, 22]: 0 | Barnyardgrass plant response rating ([8]; 31 g ai/ha): 0 | Barnyardgrass plant response rating (0 to 100 scale) ([8]; 125 g ai/ha): 10 | Blackgrass plant response rating [9, 21]: 0 | Blackgrass plant response rating (0 to 100 scale) [9, 22]: 0 | Corn plant response rating (corn (Zea mays); [21]): 10 | Corn plant response rating (0 to 100 scale) (corn (Zea mays); [22]): 30 | Galium plant response rating [10, 21]: 0 | Galium plant response rating (0 to 100 scale) [10, 22]: 30 | Foxtail, Giant plant response rating [11, 21]: 0 | Foxtail, Giant plant response rating (0 to 100 scale) [11, 22]: 30 | Kochia plant response rating (kochia (Kochia scoparia) [12]; [21]): 20 | Kochia plant response rating (0 to 100 scale) (kochia (Kochia scoparia) [12]; [22]): 50 | Pigweed plant response rating [13, 21]: 20 | Pigweed plant response rating (0 to 100 scale) [13, 22]: 60 | Ragweed plant response rating [14, 21]: 0 | Ragweed plant response rating (0 to 100 scale) [14, 22]: 0 | Wheat plant response rating [15, 21]: 0 | Wheat plant response rating (0 to 100 scale) [15, 22]: 0 | Plant response rating, Barnyardgrass [16]: 45 | Plant response rating, Ducksalad [17]: 100 | Plant response rating, Rice (rice (Oryza sativa)): 25 | Plant response rating, Sedge, Umbrella [18]: 100

CN(OCC(F)(F)F)C(=O)c1c(Br)cccc1Oc1ncc(Br)cn1 [Compound 24]
Ryegrass, Italian plant response rating [1, 20]: 0 | Ryegrass, Italian plant response rating [1, 23]: 0 | Barnyardgrass plant response rating [2, 20]: 0 | Barnyardgrass plant response rating [2, 23]: 30 | Foxtail, Giant plant response rating [3, 20]: 0 | Foxtail, Giant plant response rating [3, 23]: 20 | Kochia plant response rating (kochia (Kochia scoparia) [4]; [20]): 0 | Kochia plant response rating (kochia (Kochia scoparia) [4]; [23]): 0 | Pigweed plant response rating [5, 20]: 0 | Pigweed plant response rating [5, 23]: 90 | Ragweed plant response rating [6, 20]: 0 | Ragweed plant response rating [6, 23]: 0 | Ryegrass, Italian plant response rating (0 to 100 scale) [7, 22]: 0 | Ryegrass, Italian plant response rating (0 to 100 scale) [7, 24]: 0 | Barnyardgrass plant response rating (0 to 100 scale) ([8]; 125 g ai/ha): 0 | Barnyardgrass plant response rating (0 to 100 scale) ([8]; 500 g ai/ha): 10 | Blackgrass plant response rating (0 to 100 scale) [9, 22]: 0 | Blackgrass plant response rating (0 to 100 scale) [9, 24]: 0 | Corn plant response rating (0 to 100 scale) (corn (Zea mays); [22]): 0 | Corn plant response rating (0 to 100 scale) (corn (Zea mays); [24]): 0 | Galium plant response rating (0 to 100 scale) [10, 22]: 10 | Galium plant response rating (0 to 100 scale) [10, 24]: 20 | Foxtail, Giant plant response rating (0 to 100 scale) [11, 22]: 0 | Foxtail, Giant plant response rating (0 to 100 scale) [11, 24]: 0 | Kochia plant response rating (0 to 100 scale) (kochia (Kochia scoparia) [12]; [22]): 0 | Kochia plant response rating (0 to 100 scale) (kochia (Kochia scoparia) [12]; [24]): 0 | Pigweed plant response rating (0 to 100 scale) [13, 22]: 0 | Pigweed plant response rating (0 to 100 scale) [13, 24]: 10 | Ragweed plant response rating (0 to 100 scale) [14, 22]: 0 | Ragweed plant response rating (0 to 100 scale) [14, 24]: 0 | Wheat plant response rating (0 to 100 scale) [15, 22]: 0 | Wheat plant response rating (0 to 100 scale) [15, 24]: 0 | Plant response rating, Barnyardgrass [16]: 0 | Plant response rating, Ducksalad [17]: 0 | Plant response rating, Rice (rice (Oryza sativa)): 0 | Plant response rating, Sedge, Umbrella [18]: 0

CCCCC(C#N)c1ccccc1Oc1ncc(Cl)cn1 (stereo not drawn) [Compound 129]
Plant response rating, Ryegrass, Italian [1, 19]: 20 | Plant response rating, Ryegrass, Italian [1, 20]: 60 | Plant response rating, Barnyardgrass [2, 19]: 70 | Plant response rating, Barnyardgrass [2, 20]: 100 | Plant response rating, Foxtail, Giant [3, 19]: 100 | Plant response rating, Foxtail, Giant [3, 20]: 100 | Plant response rating, Kochia (kochia (Kochia scoparia) [4]; [19]): 30 | Plant response rating, Kochia (kochia (Kochia scoparia) [4]; [20]): 100 | Plant response rating, Pigweed [5, 19]: 90 | Plant response rating, Pigweed [5, 20]: 100 | Plant response rating, Ragweed [6, 19]: 0 | Plant response rating, Ragweed [6, 20]: 0 | Ryegrass, Italian plant response rating [7, 25]: 0 | Ryegrass, Italian plant response rating [7, 26]: 60 | Barnyardgrass plant response rating ([8]; 31 g ai/ha): 20 | Barnyardgrass plant response rating ([8]; 125 g ai/ha): 100 | Blackgrass plant response rating [9, 25]: 20 | Blackgrass plant response rating [9, 26]: 80 | Corn plant response rating (corn (Zea mays); [25]): 20 | Corn plant response rating (corn (Zea mays); [26]): 20 | Galium plant response rating [10, 25]: 30 | Galium plant response rating [10, 26]: 90 | Foxtail, Giant plant response rating [11, 25]: 20 | Foxtail, Giant plant response rating [11, 26]: 100 | Kochia plant response rating (kochia (Kochia scoparia) [12]; [25]): 40 | Kochia plant response rating (kochia (Kochia scoparia) [12]; [26]): 100 | Pigweed plant response rating [13, 25]: 20 | Pigweed plant response rating [13, 26]: 70 | Ragweed plant response rating [14, 25]: 0 | Ragweed plant response rating [14, 26]: 0 | Wheat plant response rating [15, 25]: 0 | Wheat plant response rating [15, 26]: 10 | Plant response rating, Barnyardgrass [16]: 45 | Plant response rating, Ducksalad [17]: 90 | Plant response rating, Rice (rice (Oryza sativa)): 40 | Plant response rating, Sedge, Umbrella [18]: 80
